Measurements as given in patent US12528812B2 (Genentech, Inc., priority 2020, dated 2026).

Assays:
[1] = system: IL-13-stimulated STAT6 phosphorylation in human lung bronchial epithelial BEAS-2B cell line; assay: P-STAT6 BEAS-2B + IL-13 cell assay; format: cell-based; conditions: Homo sapiens, BEAS-2B, BEAS2B cells, IL13 stimulation; read-out: Cellular JAK1 PSTAT6 BEAS2B + IL13
Outline: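 BEAS-2B cells grown 48 h at 37 °C, pre-treated 1 h with compound (10-point 1:2 dilution curve), then stimulated 15 min with human recombinant IL-13 (250 ng/mL stock). Lysate P-STAT6 (Tyr641) read by MSD sandwich ELISA with total-STAT6 capture; IC50 from four-parameter logistic fit of control-normalised data.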

[2] = target: T1, recombinant human JAK1 kinase domain protein (Residues 854-1154) (Homo sapiens, UniProt P23458); assay: JAK1 biochemical assay (LabChip mobility shift, Ki); conditions: read-out: Biochem JAK1 Ki
T1 construct: human JAK1 kinase domain protein (Residues 854-1154); purchased Proteros Biostructures GmbH (Martinsried, Germany); host or cells: insect cells

[3] = target: Recombinant human JAK2 kinase domain protein (Residues 812-1132) (Homo sapiens, UniProt O60674); assay: JAK2 biochemical assay (LabChip mobility shift, Ki); conditions: Biochem JAK2 Ki
Chain of Recombinant human JAK2 kinase domain protein (Residues 812-1132) (O60674 812-1132): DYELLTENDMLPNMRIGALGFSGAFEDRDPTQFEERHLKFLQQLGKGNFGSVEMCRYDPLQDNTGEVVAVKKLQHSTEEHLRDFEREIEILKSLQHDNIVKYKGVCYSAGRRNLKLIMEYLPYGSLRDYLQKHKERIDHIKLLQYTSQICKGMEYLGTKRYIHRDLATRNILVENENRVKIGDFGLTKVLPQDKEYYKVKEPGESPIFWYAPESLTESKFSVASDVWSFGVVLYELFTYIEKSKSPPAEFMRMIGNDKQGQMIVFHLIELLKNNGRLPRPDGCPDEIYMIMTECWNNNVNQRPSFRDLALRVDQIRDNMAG

T1 sequence (P23458 854-1154): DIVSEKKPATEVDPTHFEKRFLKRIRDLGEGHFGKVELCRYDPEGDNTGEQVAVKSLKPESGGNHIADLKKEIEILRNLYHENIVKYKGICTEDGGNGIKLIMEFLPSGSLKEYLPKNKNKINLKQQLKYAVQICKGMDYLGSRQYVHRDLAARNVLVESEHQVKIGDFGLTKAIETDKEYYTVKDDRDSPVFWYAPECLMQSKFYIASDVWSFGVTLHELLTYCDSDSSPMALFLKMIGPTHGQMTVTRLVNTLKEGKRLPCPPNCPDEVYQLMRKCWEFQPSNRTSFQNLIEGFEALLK

| Structure (SMILES) | IC50 [1] [pM] | Ki [2] [pM] | Ki [3] [pM] |
| --- | --- | --- | --- |
| CN1CC(N(C)C(=O)c2cccc(Oc3ccc(OC(F)F)c(-c4nn(C)cc4NC(=O)c4cnn5cccnc45)c3)c2)C1 [Example 205, N-[3-[2-(difluoromethoxy)-5-[3-[methyl-(1-methylazetidin-3-yl)carbamoyl]phenoxy]phenyl]-1-methyl-pyrazol-4-yl]pyrazolo[1,5-a]pyrimidine-3-carboxamide] | 40000 | 740 | 790 |
| Cn1cc(NC(=O)c2cnn3cccnc23)c(-c2cc(Oc3cnn(C4CNC4)c3)ccc2OC(F)F)n1 [Example 116, N-[3-[5-[l-(azetidin-3-yl)pyrazol-4-yl]oxy-2-(difluoromethoxy)phenyl]-1-methyl-pyrazol-4-yl]pyrazolo[1,5-a]pyrimidine-3-carboxamide] | 95000 | 1500 | 840 |
| Cn1cc(NC(=O)c2cnn3cccnc23)c(-c2cc(Oc3cccc(C4(F)CNC4)c3)ccc2OC(F)F)n1 [Example 70, N-[3-[2-(difluoromethoxy)-5-[3-(3-fluoroazetidin-3-yl)phenoxy]phenyl]-1-methyl-pyrazol-4-yl]pyrazolo[1,5-a]pyrimidine-3-carboxamide] | 23000 | 270 | 260 |
| COC1(c2cccc(Oc3ccc(OC(F)F)c(-c4nn(C)cc4NC(=O)c4cnn5cccnc45)c3)c2)CN(C)C1 [Example 71, N-[3-[2-(difluoromethoxy)-5-[3-(3-methoxy-1-methyl-azetidin-3-yl)phenoxy]phenyl]-1-methyl-pyrazol-4-yl]pyrazolo[1,5-a]pyrimidine-3-carboxamide] | 47000 | 940 | 880 |
| CN1CCC(n2cc(Oc3ccc(OC(F)F)c(-c4nn(C)cc4NC(=O)c4cnn5cccnc45)c3)cn2)CC1 [Example 203, N-[3-[2-(difluoromethoxy)-5-[1-(1-methyl-4-piperidyl)pyrazol-4-yl]oxy-phenyl]-1-methyl-pyrazol-4-yl]pyrazolo[1,5-a]pyrimidine-3-carboxamide] | 75000 | 2500 | 2300 |
| CN(C)C(=O)c1ccc(Oc2ccc(OC(F)F)c(-c3nn(C)cc3NC(=O)c3cnn4cccnc34)c2)cc1 [Example 88, N-[3-[2-(difluoromethoxy)-5-[4-(dimethylcarbamoyl)phenoxy]phenyl]-1-methyl-pyrazol-4-yl]pyrazolo[1,5-a]pyrimidine-3-carboxamide] | 15000 | 310 | 240 |
| CN1CCCC(O)(Cn2cc(Oc3ccc(OC(F)F)c(-c4nn(C)cc4NC(=O)c4cnn5cccnc45)c3)cn2)CC1 (stereo not drawn) [Example 196, N-[3-[2-(difluoromethoxy)-5-[1-[(4-hydroxy-1-methyl-azepan-4-yl)methyl]pyrazol-4-yl]oxy-phenyl]-1-methyl-pyrazol-4-yl]pyrazolo[1,5-a]pyrimidine-3-carboxamide] | 120000 | 800 | 520 |
| Cn1cc(NC(=O)c2cnn3cccnc23)c(-c2cc(Oc3ccc(F)c(C4(O)CNC4)c3)ccc2OC(F)F)n1 [Example 103, N-[3-[2-(difluoromethoxy)-5-[4-fluoro-3-(3-hydroxyazetidin-3-yl)phenoxy]phenyl]-1-methyl-pyrazol-4-yl]pyrazolo[1,5-a]pyrimidine-3-carboxamide] | 260000 | 480 | 540 |
| CN(C)C(=O)CNCc1cccc(Oc2ccc(OC(F)F)c(-c3nn(C)cc3NC(=O)c3cnn4cccnc34)c2)c1 [Example 55, N-[3-[2-(difluoromethoxy)-5-[3-[[[2-(dimethylamino)-2-oxo-ethyl]amino]methyl]phenoxy]phenyl]-1-methyl-pyrazol-4-yl]pyrazolo[1,5-a]pyrimidine-3-carboxamide] | 48000 | 900 | 580 |
| Cn1cc(NC(=O)c2cnn3cccnc23)c(-c2cc(Oc3cnn(C4CCNC4)c3)ccc2OC(F)F)n1 (racemic) [Example 139, N-[3-[2-(difluoromethoxy)-5-[1-[rac-(3R)-pyrrolidin-3-yl]pyrazol-4-yl]oxy-phenyl]-1-methyl-pyrazol-4-yl]pyrazolo[1,5-a]pyrimidine-3-carboxamide] | 70000 | 2000 | 1500 |
| Cn1cc(NC(=O)c2cnn3cccnc23)c(-c2cc(Oc3cccc(CNC4COC4)c3)ccc2OC(F)F)n1 [Example 29, N-[3-[2-(difluoromethoxy)-5-[3-[(oxetan-3-ylamino)methyl]phenoxy]phenyl]-1-methyl-pyrazol-4-yl]pyrazolo[1,5-a]pyrimidine-3-carboxamide] | 62000 | 1200 | 720 |
| CN(C)C1CCCN(C(=O)c2cccc(Oc3ccc(OC(F)F)c(-c4nn(C)cc4NC(=O)c4cnn5cccnc45)c3)c2)C1 (racemic) [Example 213, N-[3-[2-(difluoromethoxy)-5-[3-[rac-(3R)-3-(dimethylamino)piperidine-1-carbonyl]phenoxy]phenyl]-1-methyl-pyrazol-4-yl]pyrazolo[1,5-a]pyrimidine-3-carboxamide] | 49000 | 1200 | 890 |
| Cn1cc(NC(=O)c2cnn3cccnc23)c(-c2cc(Oc3cc(CNCCO)ccc3F)ccc2OC(F)F)n1 [Example 91, N-[3-[2-(difluoromethoxy)-5-[2-fluoro-5-[(2-hydroxyethylamino)methyl]phenoxy]phenyl]-1-methyl-pyrazol-4-yl]pyrazolo[1,5-a]pyrimidine-3-carboxamide] | 17000 | 320 | 400 |
| Cn1cc(NC(=O)c2cnn3cccnc23)c(-c2cc(Oc3cccc(-n4nccc4CN)c3)ccc2OC(F)F)n1 [Example 57, N-[3-[5-[3-[5-(aminomethyl)pyrazol-1-yl]phenoxy]-2-(difluoromethoxy)phenyl]-1-methyl-pyrazol-4-yl]pyrazolo[1,5-a]pyrimidine-3-carboxamide] | 37000 | 910 | 690 |
| CN(C)C1CCN(C(=O)c2cccc(Oc3ccc(OC(F)F)c(-c4nn(C)cc4NC(=O)c4cnn5cccnc45)c3)c2)C1 (racemic) [Example 211, N-[3-[2-(difluoromethoxy)-5-[3-[rac-(3S)-3-(dimethylamino)pyrrolidine-1-carbonyl]phenoxy]phenyl]-1-methyl-pyrazol-4-yl]pyrazolo[1,5-a]pyrimidine-3-carboxamide] | 54000 | 980 | 580 |
| CNCCn1cc(NC(=O)c2cnn3cccnc23)c(-c2cc(Oc3ccccc3)ccc2OC(F)F)n1 [Example 26, N-[3-[2-(difluoromethoxy)-5-phenoxy-phenyl]-1-[2 (methylamino)ethyl]pyrazol-4-yl]pyrazolo[1,5-a]pyrimidine-3-carboxamide] | 12000 | 250 | 410 |
| CN1CCN(C(=O)c2cccc(Oc3ccc(OC(F)F)c(-c4nn(C)cc4NC(=O)c4cnn5cccnc45)c3)c2)CC1 [Example 84, N-[3-[2-(difluoromethoxy)-5-[3-(4-methylpiperazine-1-carbonyl)phenoxy]phenyl]-1-methyl-pyrazol-4-yl]pyrazolo[1,5-a]pyrimidine-3-carboxamide] | 74000 | 480 | 470 |
| CNCc1ccnn1-c1cccc(Oc2ccc(OC(F)F)c(-c3nn(C)cc3NC(=O)c3cnn4cccnc34)c2)c1 [Example 66, N-[3-[2-(difluoromethoxy)-5-[3-[5-(methylaminomethyl)pyrazol-1-yl]phenoxy]phenyl]-1-methyl-pyrazol-4-yl]pyrazolo[1,5-a]pyrimidine-3-carboxamide] | 130000 | 3900 | 3600 |
| Cc1c(Oc2ccc(OC(F)F)c(-c3nn(C)cc3NC(=O)c3cnn4cccnc34)c2)cnn1C [Example 152, N-[3-[2-(difluoromethoxy)-5-(1,5-dimethylpyrazol-4-yl)oxy-phenyl]-1-methyl-pyrazol-4-yl]pyrazol[1,5-a]pyrimidine-3-carboxamide] | 20000 | 310 | 300 |
| Cn1cc(NC(=O)c2cnn3cccnc23)c(-c2cc(Oc3ccc(C(N)=O)cc3)ccc2OC(F)F)n1 [Example 136, N-[3-[5-(4-carbamoylphenoxy)-2-(difluoromethoxy)phenyl]-1-methyl-pyrazol-4-yl]pyrazolo[1,5-a]pyrimidine-3-carboxamide] | 46000 | 500 | 230 |
| CN(C)C(=O)c1ccc(Oc2ccc(OC(F)F)c(-c3nn(C4COC4)cc3NC(=O)c3cnn4cccnc34)c2)cc1 [Example 142, 3-[2-(difluoromethoxy)-5-[4-(dimethylcarbamoyl)phenoxy]phenyl 1-1-(oxetan-3-yl)pyrazol-4-yl]pyrazolo[1,5-a]pyrimidine-3-carboxamide] | 22000 | 640 | 390 |
| Cn1cc(NC(=O)c2cnn3cccnc23)c(-c2cc(Oc3cnn(C4CCNCC4O)c3)ccc2OC(F)F)n1 (stereo not drawn) [Example 182, N-[3-[2-(difluoromethoxy)-5-[1-(3-hydroxy-4-piperidyl)pyrazol-4-yl]oxy-phenyl]-1-methyl-pyrazol-4-yl]pyrazolo[1,5-a]pyrimidine-3-carboxamide] | 160000 | 650 | 430 |
| CN(C)C(=O)c1cccc(Oc2ccc(OC(F)F)c(-c3nn(C)cc3NC(=O)c3cnn4cccnc34)c2)c1 [Example 62, N-[3-[2-(difluoromethoxy)-5-[3-(dimethylcarbamoyl)phenoxy]phenyl]-1-methyl-pyrazol-4-yl]pyrazolo[1,5-a]pyrimidine-3-carboxamide] | 14000 | 350 | 240 |
